SMILES strings stand for the structures. “And” between values parts separate entries of the source, which are not always exact repeats. Identical values can stand only once.

Holding throughout (assay): normalised viability (% of control), CellTiter-Blue; higher = more viable cells (about 100 = DMSO control)
What all share (details): incubation time: 72 h

Assay [1] relates to CAL-148. The protocol:
(§1)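 DSRT, CellTiter-Blue viability, 72 h incubation. Signal is normalised to DMSO and benzethonium chloride controls. Value is the normalised response at dose 6.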

For assay [2], the system named is HDQ-P1. The protocol:
as §1

In assay [3] the test system is DU-4475. The protocol: as §1
The subject of assay [4] is CAL-85-1. As to the method:
as §1

Assay [5] relates to MDA-MB-453. The protocol:
as §1

For assay [6], the system named is CAL-51. The protocol: as §1
In assay [7] the test system is CAL-148. The protocol: (§2)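 DSRT, CellTiter-Blue viability, 72 h incubation. Signal is normalised to DMSO and benzethonium chloride controls. Value is the normalised response at dose 7.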
The source holds these as a separate data set.

Assay [8] deals with HDQ-P1. As to the method:
as §2
The source holds these as a separate data set.

In assay [9] the test system is DU-4475. The protocol: as §2
The source holds these as a separate data set.

Assay [10] concerns CAL-85-1. The protocol:
as §2
This is another data set of the same source.

Assay [11] concerns MDA-MB-453. As to the method: as §2
The source holds these as a separate data set.

Assay [12] deals with CAL-51. As to the method: as §2
This is another data set of the same source.

The subject of assay [13] is CAL-148. As to the method: (§3)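 DSRT, CellTiter-Blue viability, 72 h incubation. Signal is normalised to DMSO and benzethonium chloride controls. Value is the normalised response at dose 8.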
This is another data set of the same source.

Assay [14] relates to HDQ-P1. As to the method:
as §3
This is another data set of the same source.

The subject of assay [15] is DU-4475. As to the method:
as §3
The source holds these as a separate data set.

For assay [16], the system named is CAL-85-1. As to the method:
as §3
This is another data set of the same source.

For assay [17], the system named is MDA-MB-453. As to the method: as §3
The source holds these as a separate data set.

The subject of assay [18] is CAL-51. The protocol:
as §3
This is another data set of the same source.

As to `Nc1ncn([C@@H]2O[C@H](CO)[C@@H](O)[C@H]2O)c(=O)n1` [Azacitidine] (300 nM), the normalised viability with CAL-148 [1] was determined as 95.3%; in the assay with HDQ-P1 [2], 84.5%; in the assay with DU-4475 [3] it was 90%; in the assay on CAL-85-1 [4], 93.1%; in the assay with MDA-MB-453 [5], 91.9%; with CAL-51 [6] it was 104%.
As for `CC1(C)CNc2cc(NC(=O)c3cccnc3NCc3ccncc3)ccc21` [Motesanib] (300 nM), the normalised viability was 98.8% with CAL-148 [1]; 62.8% in the assay with HDQ-P1 [2]; 95.9% with DU-4475 [3]; 78.1% with CAL-85-1 [4]; 86.5% with MDA-MB-453 [5]; 103% in the assay on CAL-51 [6].
As to `C[C@]1(O)C[C@@H](c2nc(-c3ccc4ccc(-c5ccccc5)nc4c3)c3c(N)nccn32)C1` [OSI-906] (1000 nM), the normalised viability in the assay on CAL-148 [7] is 95%; in the assay on HDQ-P1 [8], 55.5%; with DU-4475 [9], 77.3%; in the assay with CAL-85-1 [10], 91.9%; with MDA-MB-453 [11], 93.7%; with CAL-51 [12] it was 86.9%.
For the compound `COc1cc2c(cc1O)CC[C@@H]1[C@@H]2CC[C@]2(C)[C@@H](O)CC[C@@H]12` [2-methoxyestradiol] (300 nM), the normalised viability in the assay on CAL-148 [1] is 97%; in the assay with HDQ-P1 [2], 72.2%; in the assay with DU-4475 [3] it was 90.8%; in the assay on CAL-85-1 [4], 99%; in the assay with MDA-MB-453 [5], 81.3%; in the assay on CAL-51 [6], 110%.
`C[C@]12CC[C@@H]3c4ccc(OC(=O)N(CCCl)CCCl)cc4CC[C@H]3[C@@H]1CC[C@@H]2O` [Estramustine] (99 nM): the normalised viability in the assay on CAL-148 [7] turned out to be 119%; in the assay on HDQ-P1 [8] it was 97.1%; in the assay on DU-4475 [9] it was 106%; in the assay on CAL-85-1 [10], 102%; with MDA-MB-453 [11], 99.7%; with CAL-51 [12], 85.8%.
As to `Cn1cnc2c(F)c(Nc3ccc(Br)cc3Cl)c(C(=O)NOCCO)cc21` [Selumetinib] (300 nM), the normalised viability in the assay with CAL-148 [1] came to 89.6%; in the assay on HDQ-P1 [2], 41.9%; with DU-4475 [3] it was 7.86%; with CAL-85-1 [4], 83.4%; with MDA-MB-453 [5] it was 121%; in the assay with CAL-51 [6] it was 95.1%.
In the case of `Nc1nc2[nH]cnc2c(=S)[nH]1` [Thioguanine] (3000 nM), the normalised viability with CAL-148 [13] amounted to 78.4%; in the assay on HDQ-P1 [14] it was 86.4%; with DU-4475 [15], 115%; in the assay on CAL-85-1 [16], 75.7%; with MDA-MB-453 [17] it was 110%; in the assay with CAL-51 [18] it was 103%.
Consider `CC(C)(C)c1cnc(CSc2cnc(NC(=O)C3CCNCC3)s2)o1` [SNS-032] (3000 nM), for which the normalised viability in the assay with CAL-148 [13] turned out to be 18.8%; with HDQ-P1 [14], 14.4%; with DU-4475 [15] it was 4.8%; with CAL-85-1 [16], 3.68%; in the assay on MDA-MB-453 [17], 15.8%; in the assay with CAL-51 [18], 8.52%.
Consider `CC(=O)O[C@@]12CO[C@@H]1C[C@H](O)[C@@]1(C)C(=O)[C@H](O)C3=C(C)[C@@H](OC(=O)[C@H](O)[C@@H](NC(=O)OC(C)(C)C)c4ccccc4)C[C@@](O)([C@@H](OC(=O)c4ccccc4)[C@H]21)C3(C)C` [Docetaxel] (30 nM), for which the normalised viability is 18.9% and 14.9% in the assay with CAL-148 [1]; 23.5% and 31.8% with HDQ-P1 [2]; 19.6% and 16.1% in the assay on DU-4475 [3]; 30.6% and 27.1% in the assay on CAL-85-1 [4]; 27.2% and 26.1% with MDA-MB-453 [5]; 25.8% and 20.6% in the assay with CAL-51 [6].
As to `COc1cc(F)c(F)c(Nc2ccc(I)cc2F)c1NS(=O)(=O)C1(C[C@H](O)CO)CC1` [RDEA119] (300 nM), the normalised viability in the assay with CAL-148 [1] was 82.6%; in the assay with HDQ-P1 [2], 58.7%; in the assay on DU-4475 [3] it was 1.76%; with CAL-85-1 [4] it was 72.8%; with MDA-MB-453 [5], 80.8%; with CAL-51 [6] it was 74.9%.
Consider `CC(=O)c1c(C)c2cnc(Nc3ccc(N4CCNCC4)cn3)nc2n(C2CCCC2)c1=O` (300 nM), for which the normalised viability with CAL-148 [1] was determined as 102%; with HDQ-P1 [2], 52.7%; in the assay with DU-4475 [3] it was 102%; in the assay with CAL-85-1 [4], 89.8%; with MDA-MB-453 [5], 74.3%; in the assay with CAL-51 [6] it was 81.1%.
For `O=C1CN2Cc3c(ccc(Cl)c3Cl)N=C2N1` [Anagrelide] (3000 nM), the normalised viability in the assay with CAL-148 [13] was 94.8%; with HDQ-P1 [14], 85.4%; with DU-4475 [15], 97.8%; with CAL-85-1 [16], 84.8%; in the assay on MDA-MB-453 [17], 112%; in the assay on CAL-51 [18], 78.4%.
For `Cn1cnc2c(F)c(Nc3ccc(Br)cc3Cl)c(C(=O)NOCCO)cc21` [Selumetinib] (3000 nM), the normalised viability in the assay on CAL-148 [13] was 91.9%; in the assay on HDQ-P1 [14], 76.5%; in the assay with DU-4475 [15] it was 0.16%; in the assay on CAL-85-1 [16] it was 59.3%; in the assay on MDA-MB-453 [17] it was 108%; in the assay on CAL-51 [18] it was 86.9%.
In the case of `CC1=C2C[C@H]3[C@@H](CC=C4C[C@@H](O)CC[C@@]43C)[C@@H]2CC[C@]12O[C@@H]1C[C@H](C)CN[C@H]1[C@H]2C` [Cyclopamine] (3000 nM), the normalised viability in the assay with CAL-148 [13] was 111%; with HDQ-P1 [14], 105%; in the assay on DU-4475 [15] it was 122%; in the assay on CAL-85-1 [16], 99.7%; with MDA-MB-453 [17] it was 105%; in the assay on CAL-51 [18] it was 109%.
On to `COc1cc(F)c(F)c(Nc2ccc(I)cc2F)c1NS(=O)(=O)C1(C[C@H](O)CO)CC1` [RDEA119] (1000 nM), for which the normalised viability in the assay on CAL-148 [7] amounted to 87.7%; with HDQ-P1 [8] it was 40.8%; with DU-4475 [9], 0.64%; in the assay with CAL-85-1 [10], 54.1%; in the assay with MDA-MB-453 [11] it was 67%; in the assay with CAL-51 [12], 79.3%.
With `C[C@]12CC[C@@H]3c4ccc(OC(=O)N(CCCl)CCCl)cc4CC[C@H]3[C@@H]1CC[C@@H]2O` [Estramustine] (29.7 nM), the normalised viability in the assay on CAL-148 [1] is 116%; in the assay with HDQ-P1 [2], 95.3%; in the assay on DU-4475 [3], 71.4%; in the assay with CAL-85-1 [4], 97.2%; in the assay with MDA-MB-453 [5] it was 97.2%; in the assay with CAL-51 [6], 79.1%.
`CC1=C2C[C@H]3[C@@H](CC=C4C[C@@H](O)CC[C@@]43C)[C@@H]2CC[C@]12O[C@@H]1C[C@H](C)CN[C@H]1[C@H]2C` [Cyclopamine] (300 nM): the normalised viability in the assay with CAL-148 [1] is 115%; in the assay on HDQ-P1 [2], 79.2%; in the assay on DU-4475 [3], 105%; in the assay with CAL-85-1 [4], 106%; with MDA-MB-453 [5], 113%; in the assay on CAL-51 [6], 115%.
Consider `Cn1cc(C2=Nc3cc(NC(=O)C(N)C4CCCCC4)cc4c3C2=CNNC4=O)cn1` (stereo not given) (3000 nM), for which the normalised viability stood at 21.9% with CAL-148 [13]; 51.6% in the assay with HDQ-P1 [14]; 62.3% with DU-4475 [15]; 50.7% in the assay with CAL-85-1 [16]; 25.2% in the assay on MDA-MB-453 [17]; 80.6% with CAL-51 [18].
Consider `Oc1ncnc2[nH]ncc12` [Allopurinol] (300 nM), for which the normalised viability worked out at 113% with CAL-148 [1]; 73.6% in the assay on HDQ-P1 [2]; 91.6% in the assay with DU-4475 [3]; 104% in the assay on CAL-85-1 [4]; 101% with MDA-MB-453 [5]; 93.3% in the assay with CAL-51 [6].
As for `Cc1sc2c(c1C)C(c1ccc(Cl)cc1)=N[C@@H](CC(=O)OC(C)(C)C)c1nnc(C)n1-2` [(+)JQ1] (300 nM), the normalised viability amounted to 73.8% in the assay with CAL-148 [1]; 62.9% in the assay on HDQ-P1 [2]; 57.6% with DU-4475 [3]; 64.2% in the assay on CAL-85-1 [4]; 34.8% in the assay with MDA-MB-453 [5]; 98.1% in the assay on CAL-51 [6].

The values are drawn from the supplement of paper PMC4862054.
